Data set [1] deals with Her2-positive breast cancer cell lines (SK-BR3, MDA-MB453, and MCF-7). In words: Growth and viability of Her2-positive breast cancer cell lines. Format: cell-based, human. The conditions noted are these: SK-BR3, MDA-MB453, MCF-7, 24 hrs. On the procedure: (§1) In contrast to the Her2-overexpressing cells, MDA-MB-468, a breast cancer cell line with no detectable levels of Her2, was resistant to TAT-ESX129-145 (FIGS. 5A and 5B). […] The effects of TAT-ESX129-145 on an MCF7 cell line stably transfected with the Her2 gene were examined.
(§2) The breast cancer cells were plated on 96-well plates at the density of 5×10^3 cells/well and maintained for 24 hrs. Adamanolol was added to the medium at varied concentrations and incubated for another 24 hrs. Premix WST-1 solution (Takara) was added to each well and incubated for 2 hrs. Cell viability was estimated by measuring absorbance at 450 nm with a SPECTRAmax microplate reader.

The test system of the next data set is Her2. In words: Her2 protein expression by western blot of cell lysates. Format: cell-based, human. The conditions noted are these: SK-BR3 cells, 7.3 μM, 24 hrs; α-tubulin not reduced; listed as adamanolol. The text has this:
Sur-2 is a human homolog of […] elegans Sur-2, a protein of unknown function whose mutations suppress the phenotype of an activated ras mutation (Singh et al., 1995), and it has been linked to the transcription-activating function of the adenovirus E1A protein and the Elk-1 transcription factor. […] To test this, we designed a cell-permeable peptide that binds Sur-2 (referred to as TAT-ESX129-145). The design takes advantage of the binding affinity of ESX129-145 and the cell internalization property of the 11-aa peptide derived from the HIV TAT protein. We first examined whether TAT ESX129-145 reduces endogenous expression of the Her2 gene in three Her2-overexpressing breast cancer cell lines, SK-BR-3, MDA-MB-453, and […] (FIG. 4). Cells were incubated in the presence or absence of TAT-ESX129-145, and the protein levels of Her2 were examined by Western blot analyses of normalized amounts of cell lysates.
Her2-overexpressing SK-BR3 cells were treated by 7.3 μM of adamanolol for 24 hrs, and whole cell lysates were analyzed by western blots. […]
SK-BR3 cells were treated by 7 μM of wrenchnolol for 24 hrs, and whole cell lysates were analyzed by western blots. […]
For orientation: Immunoblotting shows a protein as a band on a membrane.

The subject of another data set is BT474 cells. As to the kind of experiment: Animal study: BT474-derived tumors in mammary fat pads of nude mice. Format: in vivo. As to conditions: 20 mg/kg daily intraperitoneal, 5 consecutive days each week for two weeks. As to the method: Breast cancer cell lines derived from BT474 after one round (BT474M1) or two rounds (BT474M2) of tumorigenic selection were used. 5×10^6 cells were injected with Matrigel into mammary fat pads of nude mice. Two tumors were inoculated for each animal and each treatment group contained 5 animals. Five weeks after inoculation when the tumors were well established (about 100 mm^3 in average) the treatment started (day 0 in the figure). Each mouse received adamanolol (7QH2) at a daily dose of 20 mg/kg through intraperitoneal injection for 5 consecutive days in each week for two weeks. Tumor volumes were measured every three days. The percentile of the tumor volume related to the initial volume at day 0 was plotted for each time point. Adamanolol is a potent tumor growth inhibitor of HER-2/neu-overexpressing cancer cells in vivo.

A further data set has as its system VP16 activation domain. In words: Transcription reporter gene assay (GAL4 fusion, SEAP), VP16 activation domain. The conditions noted are these: HEK293Tag cells, 24 hour incubation with adamanolol. Format: cell-based. As to the method:
(§3) Mammalian expression vectors each encoding the activation domain of ESX, VP16, or NFκBp65 fused with the GAL4 DNA-binding domain were used. Each expression construct was co-transfected to HEK293Tag human kidney cells together with a reporter plasmid in which the production of secreted alkaline phosphatase (SEAP) is under control of an IL-2 promoter carrying five GAL4 binding sites. After a 24 hour incubation in the presence or absence of adamanolol, an aliquot of the culture was assayed for SEAP activity. The total amounts of transfected DNA were normalized.
(§4) mammalian expression vectors, each encoding the activation domain of ESX, VP16, or NF-κB p65 fused with the GAL4 DNA-binding domain (amino acids 1-94), were used. Each expression construct was co-transfected to HEK293Tag human kidney cells together with a reporter plasmid in which the production of secreted alkaline phosphatase (SEAP) is under control of an IL2 promoter carrying five GAL4 binding sites. After 10-hr incubation with wrenchnolol (20 μM), an aliquot of the culture was assayed for SEAP activity.
(In general: In a reporter assay the amount or activity of a reporter protein is the signal.)

A further data set deals with T1, ESX-Sur-2 interaction (Homo sapiens, UniProt Q9ULK4).
T1 construct: made in house
T1 sequence (Q9ULK4 352-625): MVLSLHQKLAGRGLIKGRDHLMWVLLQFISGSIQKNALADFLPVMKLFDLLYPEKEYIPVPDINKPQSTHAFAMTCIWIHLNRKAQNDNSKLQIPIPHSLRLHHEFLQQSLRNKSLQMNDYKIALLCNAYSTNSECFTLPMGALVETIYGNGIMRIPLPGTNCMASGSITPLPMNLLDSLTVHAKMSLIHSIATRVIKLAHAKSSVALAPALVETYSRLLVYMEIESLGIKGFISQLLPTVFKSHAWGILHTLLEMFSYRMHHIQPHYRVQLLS
As to the kind of experiment: Inhibition of the ESX-Sur-2 interaction in vitro (fluorescence of FITC-ESX129-145 with GST-Sur2352-625). Format: binding. The conditions noted are these: for IC50: FITC-ESX129-145 (152 nM), GST-Sur2352-625 (212 nM); for inhibition of the ESX-Sur-2 interaction in vitro (in words): in vitro fluorescence assay. On the procedure: To monitor the ESX-DRIP130 interaction, we labeled ESX129-145 with fluorescein isothiocyanate (FITC; Pierce) at the Lys144 position and measured its fluorescence spectra upon adding the glutatathione-S′-transferase (GST) fusion of DRIP130352-625. ESX129-145 was synthesized by standard Fmoc chemistry (the NH2 terminus was capped by an acetyl group during the synthesis) and purified by HPLC. The peptide was then coupled with FITC at the Lys144 position in a conjugation buffer (100 mM carbonate-bicarbonate buffer, pH 9) in dark and purified by NAP-5 desalting column (Amersham). The labeled peptide was quantified by UV and visible absorbance.
GST-Sur-2352-625 was expressed and purified. Varied concentrations of the fusion protein were added to FITC-ESX129-145 (10 nM) in phosphate buffered saline containing 2% (v/v) ethanol, and the fluorescence spectra of FITC-ESX129-145 were measured by an ABI LS-50B Fluorescence Spectrometer (Ex: 490 nm). The dissociation constant of the interaction was estimated to be 12 μM through the emission perturbation at 522 nm.
To examine the effects of adamanolol on the interaction in vitro, the ethanol component of the binding buffer was replaced with an ethanolic solution of adamanolol. The fractions of FITC-ESX129-145 (10 nM) bound to 50 μM of GST-Sur-2352-625 were estimated by measuring fluorescence emission at 522 nm. ESX129-145 and pindolol were used as positive and negative controls, respectively.
In another series of derivatives (the R3 substituents in Table 1), the adamantane group of adamanolol was substituted (11a-d). […] The binding fractions were calculated on the basis of fluorescence spectra of FITC-ESX129-145 (152 nM) in presence of GST-Sur2352-625 (212 nM) and varied concentrations of each adamanolol derivative.

Data set [2] concerns SK-BR3 breast cancer cells. As to the kind of experiment: Cell viability assay (WST-1) in SK-BR3 breast cancer cells. As to conditions: for IC50: Homo sapiens, SK-BR-3, 48 hrs incubation, WST-1; for ability to kill SK-BR3 cells (biological activity, in words): compared with adamanolol. Format: cell-based, human. As to the method:
SK-BR3 breast cancer cells were plated on 96-well plates at density of 5×10^3 cells/well and maintained for 24 hrs. The cells were then incubated with varied concentrations of each compound for 48 hrs, followed by addition of Premix WST-1 Solution (Takara). Cell viability was estimated by measuring absorbance at 450 nm after 1 hr with a SPECTRAmax microplatereader.
(In general: Tetrazolium assays rely on reduction of a dye to a coloured formazan, in cell work by metabolically active cells.)

A further data set relates to MDA-MB468. In words: Growth and viability of Her2-negative MDA-MB468 cells. Format: cell-based, human. As to conditions: no detectable levels of Her2; 24 hrs. As to the method: as §1, §2
For a further data set, the system named is ESX activation domain. As to the kind of experiment: Transcription reporter gene assay (GAL4 fusion, SEAP), ESX activation domain. Format: cell-based, human. On the procedure:
as §3, §4

Data set [3] is described as follows: Solubility in neutral aqueous solution. Format: physicochemical. As to the method: When the amino group of the handle was protonated, wrenchnolol (7b) and its aminopropyl version (7a) became soluble up to ˜1 mM in neutral aqueous solution. The high water solubility enabled NMR analysis of these molecules in a buffered aqueous solution, and their proton signals were completely assigned through a combination of NOESY, DQF-COSY, and HOHAHA data sets (Table S1).

Entries after “also recorded” stand apart in the source; their conditions may differ.

The IC50 is the concentration that inhibits the measured activity by half. For `CC(C)N(CC(O)COc1cccc2[nH]ccc12)C(=O)N1CCC(C2CCN(C(=O)C34CC5CC(CC(C5)C3)C4)CC2)CC1` (stereo not drawn) [Compound 4a, 1′-(adamantane-1-carbonyl)-[4,4′]bipiperidinyl-1-carboxylic acid [2-hydroxy-3-3-(1H-indol-4-yloxy)-propyl]-isopropyl-amide], the “viability of Her2-positive breast cancer cell lines” value is “impaired the viability” in [1] (listed as Adamanolol); “selectively impairs the cell growth and viability” in [1] (listed as adamanolol). In addition, in the data set with Her2, the “expression of Her2 protein” value was “significantly reduced; also recorded: inhibition of Her2”. In addition, the “tumor growth (tumor volume relative to day 0)” value in the data set with BT474 cells is recorded as “significant growth suppression”. The “effect on the VP16 activation domain” value with VP16 activation domain is listed as “little effects”. The half-inhibitory concentration (IC50) against ESX-Sur-2 interaction turned out to be 15.4 ± 0.3 µM; in data set [2] it was 6.4 ± 1.8 µM. At ESX-Sur-2 interaction, the “inhibition of the ESX-Sur-2 interaction in vitro (in words)” value (from here on “inhibition of the ESX-Sur-2 interaction”) is “inhibits”. In addition, the “viability of MDA-MB468” value in the data set on MDA-MB468 is listed as “much milder effects”. The “ability of the ESX activation domain to stimulate transcription” value with ESX activation domain (HEK293Tag cells, 24 hour incubation with adamanolol) is reported as “impaired; also recorded: selectively inhibits”.

As for `CC(C)CN(CC(O)COc1cccc2[nH]ccc12)C(=O)N1CCC(C2CCN(C(=O)C34CC5CC(CC(C5)C3)C4)CC2)CC1` (stereo not drawn) [Compound 4b], the IC50 amounted to 15.1 ± 0.8 µM against ESX-Sur-2 interaction and 4.1 ± 0.2 µM in [2].

In the case of `O=C(NCC(O)COc1cccc2[nH]ccc12)N1CCC(C2CCN(C(=O)C34CC5CC(CC(C5)C3)C4)CC2)CC1` (stereo not drawn) [Compound 4d], on ESX-Sur-2 interaction, the IC50 is over 40 µM and the “inhibition of the ESX-Sur-2 interaction” value was “abolished”. Besides, in data set [2], the IC50 is over 100 µM and the “ability to kill SK-BR3 cells (biological activity, in words)” value (from here on “ability … (biological activity, in words)”) is on record as “abolished; also recorded: little activity”. For the same molecule, in the data set with ESX activation domain (HEK293 cells, 20 μM, 10-hr incubation), the “ability of the ESX activation domain to activate the reporter gene” value was “almost no effects; also recorded: little effects”.

With `CC(C)(C)OC(=O)NCCCN(CC(O)COc1cccc2[nH]ccc12)C(=O)N1CCC(C2CCN(C(=O)C34CC5CC(CC(C5)C3)C4)CC2)CC1` (stereo not drawn) [Compound 4e], the results for the IC50 (against ESX-Sur-2 interaction; in data set [2]) were 11.9 ± 0.7 µM and 11.7 ± 0.1 µM, respectively.

As for `Cc1ccc(S(=O)(=O)n2ccc3c(OCC(O)CN(C(=O)N4CCC(C5CCN(C(=O)C67CC8CC(CC(C8)C6)C7)CC5)CC4)C(C)C)cccc32)cc1` (stereo not drawn) [Compound 5a, N-tosyladamanolol], at ESX-Sur-2 interaction, the IC50 is 10 ± 1 µM and the “inhibition of the ESX-Sur-2 interaction” value is listed as “increased”. Besides, in data set [2], the IC50 is 2.7 ± 0.3 µM and the “ability … (biological activity, in words)” value is given as “increased the potency”.

Consider `CC(C)N(CC(O)COc1cccc2c1ccn2S(=O)(=O)c1cccc2cccnc12)C(=O)N1CCC(C2CCN(C(=O)C34CC5CC(CC(C5)C3)C4)CC2)CC1` (stereo not drawn) [Compound 5b], for which the values for the IC50 (against ESX-Sur-2 interaction; in [2]) were 12 ± 0.9 µM and 5 ± 0.3 µM, respectively.

As a reminder, the solubility is the dissolved amount per volume that the medium holds. In the case of `Cc1ccc(S(=O)(=O)n2ccc3c(OCC(O)CN(CCCN)C(=O)N4CCC(C5CCN(C(=O)C67CC8CC(CC(C8)C6)C7)CC5)CC4)cccc32)cc1` (stereo not drawn) [Compound 7a], the IC50 worked out at 10.2 ± 1.1 µM against ESX-Sur-2 interaction and 4.7 ± 0.1 µM in data set [2]. Also, in data set [3], the solubility is about 1000 µM.

As to `CC(=O)N1CCC(C2CCN(C(=O)N(CC(O)COc3cccc4[nH]ccc34)C(C)C)CC2)CC1` (stereo not drawn) [Compound 11a], on ESX-Sur-2 interaction, the IC50 was over 40 µM and the “inhibition of the ESX-Sur-2 interaction” value is recorded as “almost no ability to block”. Besides, in data set [2], the IC50 is over 100 µM and the “ability … (biological activity, in words)” value is “significant loss of the biological activity”.

Take `COCC(O)CN(C(=O)N1CCC(C2CCN(C(=O)C34CC5CC(CC(C5)C3)C4)CC2)CC1)C(C)C` (stereo not drawn) [Compound 12a]: on ESX-Sur-2 interaction, the IC50 is over 40 µM and the “inhibition of the ESX-Sur-2 interaction” value is recorded as “abolished”. In data set [2], the IC50 is over 100 µM and the “ability … (biological activity, in words)” value is “abolished”.
